Laboratory results from PubChem BioAssay (NCI).
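48-hour exposure; five concentrations; linearly interpolated endpoints. At the GI50, growth is halved. TGI marks complete inhibition of growth.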

Experiments:
Assay in all cases: NCI-60 cell line screen, 48 h
[1] = test system: SW-620 colon
[2] = test system: 786-0 renal
[3] = test system: RXF 393 renal
[4] = test system: SF-268 CNS
[5] = test system: K-562 leukemia
[6] = test system: MDA-MB-435
[7] = test system: HOP-92 NSCLC
[8] = test system: SNB-19 CNS
[9] = test system: OVCAR-8 ovarian
[10] = test system: HCT-116 colon
[11] = test system: NCI-H226 lung
[12] = test system: NCI-H522 lung
[13] = test system: NCI-H460 lung
[14] = test system: MCF7 breast
[15] = test system: MDA-MB-231 breast
[16] = test system: A549 NSCLC
[17] = test system: ACHN renal
[18] = test system: TK-10 renal
[19] = test system: CCRF-CEM leukemia
[20] = test system: HCT-15 colon
[21] = test system: OVCAR-4 ovarian
[22] = test system: HL-60(TB) leukemia
[23] = test system: HOP-62 NSCLC
[24] = test system: EKVX NSCLC
[25] = test system: SK-MEL-2 melanoma
[26] = test system: HCC-2998 colon
[27] = test system: T-47D breast
[28] = test system: OVCAR-5 ovarian

Work on C=C(C)[C@@H]1CC[C@]2(C(=O)O)CC[C@]3(C)[C@H](CC[C@@H]4[C@@]5(C)C/C(=C/c6cccc(I)c6)C(=O)C(C)(C)[C@@H]5CC[C@]43C)[C@@H]12 yielded a GI50 [1] of 1.95 µM, a TGI [1] of 4.58 µM and a GI50 [2] of 2.46 µM. It also gave a TGI [2] of 6.72 µM, a GI50 [3] of 2.88 µM and a TGI [3] of 11.8 µM. For the same molecule, the GI50 [4] was 3.17 µM, the TGI [4] was 15.1 µM and the GI50 [5] was 2.37 µM. The TGI [5] was 49.5 µM, the GI50 [6] was 2.98 µM and the TGI [6] was 9.74 µM. For the same molecule, the GI50 [7] was 1.72 µM, the TGI [7] was 5.28 µM and the GI50 [8] was 3.28 µM. The TGI [8] was 17.5 µM, the GI50 [9] was 2.87 µM and the TGI [9] was 14.3 µM. For the same molecule, the GI50 [10] was 1.78 µM, the TGI [10] was 3.53 µM and the GI50 [11] was 2.64 µM. It also gave a TGI [11] of 10.1 µM, a GI50 [12] of 2.1 µM and a TGI [12] of 6.94 µM. For the same molecule, the GI50 [13] was 1.9 µM, the TGI [13] was 4.27 µM and the GI50 [14] was 2.64 µM. It also gave a TGI [14] of 10.5 µM, a GI50 [15] of 2.83 µM and a TGI [15] of 10 µM. For the same molecule, the GI50 [16] was 1.49 µM, the TGI [16] was 6.31 µM and the GI50 [17] was 2.62 µM. It also gave a TGI [17] of 11 µM, a GI50 [18] of 3.25 µM and a TGI [18] of 20.6 µM. It also gave a GI50 [19] of 2.74 µM, a TGI [19] of 10.3 µM and a GI50 [20] of 2.63 µM. It also gave a TGI [20] of 10.2 µM, a GI50 [21] of 2.38 µM and a TGI [21] of 8.28 µM. It also gave a GI50 [22] of 2.6 µM, a TGI [22] of 8.58 µM and a GI50 [23] of 3.24 µM. For the same molecule, the TGI [23] was 12.6 µM, the GI50 [24] was 2.65 µM and the TGI [24] was 12.7 µM. The GI50 [25] was 2.4 µM, the TGI [25] was 6.94 µM and the GI50 [26] was 2.69 µM. For the same molecule, the TGI [26] was 9.69 µM, the GI50 [27] was 2.9 µM and the TGI [27] was 19 µM. The GI50 [28] was 3.19 µM and the TGI [28] was 14.7 µM.
